Data reported in patent US11317626B2, “Forchlorfenuron mixtures and uses thereof” (Valent BioSciences LLC, priority 2018, dated 2022).

Key:
Assay type in all cases: in vivo
[1] = tested on: Concord grape vines; assay: Example 2: Concord grape vines greenhouse, forchlorfenuron and 15-0-0 fertilizer (Erger) study; conditions: for Fresh Weight at Harvest: combined shoot fresh weight, 52 days after planting; for 50% BB: days after treatment to 50% bud break; for Average Number of Broken Nodes Per Plant at Harvest: harvest 52 days after planting
Source text: To assess the ability of mixtures of the invention to promote and synchronize bud break these mixtures were applied to Concord grape vines and examined for bud break (initiation of growth) and subsequent shoot development. Specifically, dormant bare-rooted Concord grape vines were planted in pots containing Pro-Mix® BX potting soil (Pro-Mix is a registered trademark of and available from Premier Horticulture Ltd.) and pruned to five nodes on a single shoot of one-year-old wood. Nodes are regions on the shoot where leaves arise from the shoot and buds are present at the axis of the shoot:leaf interface. The bud found at the shoot:leaf interface develops into the vines new shoot growth. Aqueous solutions of forchlorfenuron, HC, 15-0-0 fertilizer, 17-0-0 fertilizer, and mixtures thereof were each applied individually or sequentially or co-applied to the first-year wood of separate Concord grape vines. […] Percent bud break is determined by the number of plants that have at least one bud broken divided by the total number of plants per treatment times 100. […] New shoot growth is the growth arising from the dormant buds not including the woody growth that was planted and gave rise to the new growth.
(§1) To determine if the mixtures provided unexpected results, the observed combined efficacy (“OCE”) was divided by the expected combined efficacy (“ECE”) wherein the expected ECE is calculated by the Abbott method: ECE=A+B−(AB/100), • wherein ECE is the expected combined efficacy and in which A and B are the speed of bud break relative to control, the number of buds broken per plant relative to control, shoot length relative to control or shoot weight relative to control given by the single active ingredients. If the ratio between the OCE of the mixture and the ECE of the mixture is greater than 1, then greater than expected interactions are present in the mixture. (Gisi, Synergistic Interaction of Fungicides in Mixtures, The American Phytopathological Society, 86:11, 1273-1279,1996). Results
The experiment from Example 1 was repeated with varying quantities of forchlorfenuron and fertilizers in a greenhouse experiment.

[2] = tested on: Malus (apple) rootstocks; assay: Example 4: bud break and shoot growth of Malus (apple) rootstocks; conditions: for Fresh Weight at Harvest: combined new shoot growth; for Fresh Weight at Harvest / Average Number of Broken Buds Per Malus Plant at Harvest / Fresh Weight per Bud at Harvest / Average Number of Broken Nodes Per Centimeter of Shoot at Harvest: harvest at 28 days; for Average Number of Broken Nodes Per Centimeter of Shoot at Harvest: rootstocks pruned to 25 centimeters
Description: as §1
(§2) To assess the ability of mixtures of the invention to promote and synchronize bud break, these mixtures were applied to field-grown Malus (apple) rootstocks and examined for bud break (initiation of growth) and subsequent shoot development. Forchlorfenuron, Dormex (50% HC), 15-0-0 (Erger®) and 17-0-0 fertilizers (CAN17), and mixtures thereof were each applied individually or sequentially (co-applied) to the shoots of potted Malus rootstocks that were pruned to a height of 25 centimeters. Plants were evaluated for bud break at 28 days after treatment.

[3] = tested on: Prunus (stone fruit) plants; assay: Example 5: bud break and shoot growth of Prunus (stone fruit) plants in greenhouse; conditions: for Fresh Weight at Harvest, FW: combined new shoot fresh weight, harvest at 28 days; for 50% BB: days after treatment to 50% bud break
Description: as §1
as §2, with “Prunus (stone fruit) plants in the greenhouse” for “field-grown Malus (apple) rootstocks”, “Prunus plants.” for “potted Malus rootstocks that were pruned to a height of 25 centimeters.”

O=C(Nc1ccccc1)Nc1ccnc(Cl)c1 [CPPU, N-(2-Chloro-4-pyridyl)-N′-phenylurea]
Fresh Weight at Harvest ([1]; listed as CPPU 300 ppm): 18.04 grams | Fresh Weight at Harvest ([1]; listed as CPPU 600 ppm): 18.54 grams | Fresh Weight at Harvest ([1]; listed as CPPU 1000 ppm): 29.13 grams | 50% BB ([1]; listed as CPPU 300 ppm): 26 days | 50% BB ([1]; listed as CPPU 600 ppm): 31 days | 50% BB ([1]; listed as CPPU 1000 ppm): 24 days | Average Number of Broken Nodes Per Plant at Harvest ([1]; listed as CPPU 300 ppm): 1.25 | Average Number of Broken Nodes Per Plant at Harvest ([1]; listed as CPPU 600 ppm): 1.88 | Average Number of Broken Nodes Per Plant at Harvest ([1]; listed as CPPU 1000 ppm): 2.63 | Fresh Weight at Harvest ([2]; listed as CPPU 300 ppm): 6.98 grams | Fresh Weight at Harvest ([2]; listed as CPPU 600 ppm): 5.65 grams | 50% BB ([2]; days after treatment to 50% bud break): 12 days | Average Number of Broken Buds Per Malus Plant at Harvest ([2]; listed as CPPU 300 ppm): 7.00 | Fresh Weight per Bud at Harvest ([2]; listed as CPPU 300 ppm): 0.88 grams | Average Number of Broken Buds Per Malus Plant at Harvest ([2]; listed as CPPU 600 ppm): 8.25 | Fresh Weight per Bud at Harvest ([2]; listed as CPPU 600 ppm): 0.71 grams | Average Number of Broken Nodes Per Centimeter of Shoot at Harvest ([2]; listed as CPPU 300 ppm): 0.28 | Average Number of Broken Nodes Per Centimeter of Shoot at Harvest ([2]; listed as CPPU 600 ppm): 0.33 | 50% BB OCE ([2]; observed efficacy, relative to control): 2 | Fresh Weight at Harvest, FW ([3]; listed as CPPU 300 ppm): 1.34 grams | Fresh Weight at Harvest, FW ([3]; listed as CPPU 600 ppm): 4.91 grams | 50% BB ([3]; listed as CPPU 300 ppm): 14 days | 50% BB ([3]; listed as CPPU 600 ppm): 10 days
